From paper PMC5078040 (Oncotarget, 2016)

How the values were obtained:
PKAC-alpha = molecular target: T1, PKAC-alpha (Homo sapiens, UniProt P17612); assay: KinomeScan; assay type: binding; conditions: 1uM
T1 construct: purchased DiscoveRx KINOMEscan

LATS2 = molecular target: T2, LATS2 (Homo sapiens, UniProt Q9NRM7); assay: KinomeScan; assay type: binding; conditions: 1uM
T2 construct: purchased DiscoveRx KINOMEscan

FLT3(K663Q) = molecular target: T3, FLT3(K663Q) (Homo sapiens, UniProt P36888, K663Q); assay: KinomeScan; assay type: binding; conditions: 1uM
T3 construct: purchased DiscoveRx KINOMEscan

PARP cleavage = assay: Apoptosis (western-blot); assay type: cell-based, human; conditions: within 12 hours
Source text: Then, apoptosis of MOLM13, HT, MEC-1 cells were detected by western-blot using PARP, GAPDH antibody (CST).

CLK2 = molecular target: T4, CLK2 (Homo sapiens, UniProt P49760); assay: KinomeScan; assay type: binding; conditions: 1uM
T4 construct: purchased DiscoveRx KINOMEscan

GAK = molecular target: T5, GAK (Homo sapiens, UniProt O14976); assay: KinomeScan; assay type: binding; conditions: 1uM
T5 construct: purchased DiscoveRx KINOMEscan

MEK5 = molecular target: T6, MEK5 (Homo sapiens, UniProt Q13163); assay: KinomeScan; assay type: binding; conditions: 1uM
T6 construct: purchased DiscoveRx KINOMEscan

DAPK3 = molecular target: T7, DAPK3 (Homo sapiens, UniProt O43293); assay: KinomeScan; assay type: binding; conditions: 1uM
T7 construct: purchased DiscoveRx KINOMEscan

ANKK1 = molecular target: T8, ANKK1 (Homo sapiens, UniProt Q8NFD2); assay: KinomeScan; assay type: binding; conditions: 1uM
T8 construct: purchased DiscoveRx KINOMEscan

FLT1 = molecular target: T9, FLT1 (Homo sapiens, UniProt P17948); assay: KinomeScan; assay type: binding; conditions: 1uM
T9 construct: purchased DiscoveRx KINOMEscan

DLK = molecular target: T10, DLK (Homo sapiens, UniProt Q12852); assay: KinomeScan; assay type: binding; conditions: 1uM
T10 construct: purchased DiscoveRx KINOMEscan

ZAK = molecular target: T11, ZAK (Homo sapiens, UniProt Q9NYL2); assay: KinomeScan; assay type: binding; conditions: 1uM
T11 construct: purchased DiscoveRx KINOMEscan

ULK3 = molecular target: T12, ULK3 (Homo sapiens, UniProt Q6PHR2); assay: KinomeScan; assay type: binding; conditions: 1uM
T12 construct: purchased DiscoveRx KINOMEscan

MINK = molecular target: T13, MINK (Homo sapiens, UniProt Q8N4C8); assay: KinomeScan; assay type: binding; conditions: 1uM
T13 construct: purchased DiscoveRx KINOMEscan

EPHA1 = molecular target: T14, EPHA1 (Homo sapiens, UniProt P21709); assay: KinomeScan; assay type: binding; conditions: 1uM
T14 construct: purchased DiscoveRx KINOMEscan

PI3Kβ = molecular target: T15, PI3Kβ (Mus musculus, UniProt Q8BTI9); assay: PI3Ks isoform in cell EC50 assay (AKT phosphorylation, Western Blotting); assay type: cell-based; conditions: NIH-3T3, 5μM LPA, read-out: cellular EC50 PI3K Beta
T15 construct: endogenous in cells; host or cells: NIH-3T3

ACVR1 = molecular target: T16, ACVR1 (Homo sapiens, UniProt Q04771); assay: KinomeScan; assay type: binding; conditions: 1uM
T16 construct: purchased DiscoveRx KINOMEscan

PI3Kα = molecular target: T17, PI3Kα (Mus musculus, UniProt P42337); assay: PI3Ks isoform in cell EC50 assay (AKT phosphorylation, Western Blotting); assay type: cell-based; conditions: NIH-3T3, 20ng/ml PDGF-BB, read-out: cellular EC50 PI3K Alpha
T17 construct: endogenous in cells; host or cells: NIH-3T3

MST4 = molecular target: T18, MST4 (Homo sapiens, UniProt Q9P289); assay: KinomeScan; assay type: binding; conditions: 1uM
T18 construct: purchased DiscoveRx KINOMEscan

SBK1 = molecular target: T19, SBK1 (Homo sapiens, UniProt Q52WX2); assay: KinomeScan; assay type: binding; conditions: 1uM
T19 construct: purchased DiscoveRx KINOMEscan

CDC2L5 = molecular target: T20, CDC2L5 (Homo sapiens, UniProt Q14004); assay: KinomeScan; assay type: binding; conditions: 1uM
T20 construct: purchased DiscoveRx KINOMEscan

MEK1 = molecular target: T21, MEK1 (Homo sapiens, UniProt Q02750); assay: KinomeScan; assay type: binding; conditions: 1uM
T21 construct: purchased DiscoveRx KINOMEscan

BTK = molecular target: T22, BTK (Homo sapiens, UniProt Q06187); assay: KinomeScan; assay type: binding; conditions: 1uM
T22 construct: purchased DiscoveRx KINOMEscan

DCAMKL1 = molecular target: T23, DCAMKL1 (Homo sapiens, UniProt O15075); assay: KinomeScan; assay type: binding; conditions: 1uM
T23 construct: purchased DiscoveRx KINOMEscan

TRKA = molecular target: T24, TRKA (Homo sapiens, UniProt P04629); assay: KinomeScan; assay type: binding; conditions: 1uM
T24 construct: purchased DiscoveRx KINOMEscan

STK36 = molecular target: T25, STK36 (Homo sapiens, UniProt Q9NRP7); assay: KinomeScan; assay type: binding; conditions: 1uM
T25 construct: purchased DiscoveRx KINOMEscan

LYN = molecular target: T26, LYN (Homo sapiens, UniProt P07948); assay: KinomeScan; assay type: binding; conditions: 1uM
T26 construct: purchased DiscoveRx KINOMEscan

[1] = molecular target: T27, ABL1(H396P)-phosphorylated (Homo sapiens, UniProt P00519, H396P); assay: KinomeScan; assay type: binding; conditions: 1uM
T27 construct: purchased DiscoveRx KINOMEscan

BIKE = molecular target: T28, BIKE (Homo sapiens, UniProt Q9NSY1); assay: KinomeScan; assay type: binding; conditions: 1uM
T28 construct: purchased DiscoveRx KINOMEscan

CSK = molecular target: T29, CSK (Homo sapiens, UniProt P41240); assay: KinomeScan; assay type: binding; conditions: 1uM
T29 construct: purchased DiscoveRx KINOMEscan

CDK11 = molecular target: T30, CDK11 (Homo sapiens, UniProt Q9BWU1); assay: KinomeScan; assay type: binding; conditions: 1uM
T30 construct: purchased DiscoveRx KINOMEscan

HIPK3 = molecular target: T31, HIPK3 (Homo sapiens, UniProt Q9H422); assay: KinomeScan; assay type: binding; conditions: 1uM
T31 construct: purchased DiscoveRx KINOMEscan

PIK3CB = molecular target: T32, PIK3CB (Homo sapiens, UniProt P42338); assay: KinomeScan; assay type: binding; conditions: 1uM
T32 construct: purchased DiscoveRx KINOMEscan

BMPR1B = molecular target: T33, BMPR1B (Homo sapiens, UniProt O00238); assay: KinomeScan; assay type: binding; conditions: 1uM
T33 construct: purchased DiscoveRx KINOMEscan

[2] = molecular target: T34, ABL1(F317L)-phosphorylated (Homo sapiens, UniProt P00519, F317L); assay: KinomeScan; assay type: binding; conditions: 1uM
T34 construct: purchased DiscoveRx KINOMEscan

MAPKAPK2 = molecular target: T35, MAPKAPK2 (Homo sapiens, UniProt P49137); assay: KinomeScan; assay type: binding; conditions: 1uM
T35 construct: purchased DiscoveRx KINOMEscan

IKK-alpha = molecular target: T36, IKK-alpha (Homo sapiens, UniProt O15111); assay: KinomeScan; assay type: binding; conditions: 1uM
T36 construct: purchased DiscoveRx KINOMEscan

EPHB4 = molecular target: T37, EPHB4 (Homo sapiens, UniProt P54760); assay: KinomeScan; assay type: binding; conditions: 1uM
T37 construct: purchased DiscoveRx KINOMEscan

PRKD3 = molecular target: T38, PRKD3 (Homo sapiens, UniProt O94806); assay: KinomeScan; assay type: binding; conditions: 1uM
T38 construct: purchased DiscoveRx KINOMEscan

DAPK1 = molecular target: T39, DAPK1 (Homo sapiens, UniProt P53355); assay: KinomeScan; assay type: binding; conditions: 1uM
T39 construct: purchased DiscoveRx KINOMEscan

EPHA8 = molecular target: T40, EPHA8 (Homo sapiens, UniProt P29322); assay: KinomeScan; assay type: binding; conditions: 1uM
T40 construct: purchased DiscoveRx KINOMEscan

LCK = molecular target: T41, LCK (Homo sapiens, UniProt P06239); assay: KinomeScan; assay type: binding; conditions: 1uM
T41 construct: purchased DiscoveRx KINOMEscan

FER = molecular target: T42, FER (Homo sapiens, UniProt P16591); assay: KinomeScan; assay type: binding; conditions: 1uM
T42 construct: purchased DiscoveRx KINOMEscan
T42 sequence (P16591 whole entry): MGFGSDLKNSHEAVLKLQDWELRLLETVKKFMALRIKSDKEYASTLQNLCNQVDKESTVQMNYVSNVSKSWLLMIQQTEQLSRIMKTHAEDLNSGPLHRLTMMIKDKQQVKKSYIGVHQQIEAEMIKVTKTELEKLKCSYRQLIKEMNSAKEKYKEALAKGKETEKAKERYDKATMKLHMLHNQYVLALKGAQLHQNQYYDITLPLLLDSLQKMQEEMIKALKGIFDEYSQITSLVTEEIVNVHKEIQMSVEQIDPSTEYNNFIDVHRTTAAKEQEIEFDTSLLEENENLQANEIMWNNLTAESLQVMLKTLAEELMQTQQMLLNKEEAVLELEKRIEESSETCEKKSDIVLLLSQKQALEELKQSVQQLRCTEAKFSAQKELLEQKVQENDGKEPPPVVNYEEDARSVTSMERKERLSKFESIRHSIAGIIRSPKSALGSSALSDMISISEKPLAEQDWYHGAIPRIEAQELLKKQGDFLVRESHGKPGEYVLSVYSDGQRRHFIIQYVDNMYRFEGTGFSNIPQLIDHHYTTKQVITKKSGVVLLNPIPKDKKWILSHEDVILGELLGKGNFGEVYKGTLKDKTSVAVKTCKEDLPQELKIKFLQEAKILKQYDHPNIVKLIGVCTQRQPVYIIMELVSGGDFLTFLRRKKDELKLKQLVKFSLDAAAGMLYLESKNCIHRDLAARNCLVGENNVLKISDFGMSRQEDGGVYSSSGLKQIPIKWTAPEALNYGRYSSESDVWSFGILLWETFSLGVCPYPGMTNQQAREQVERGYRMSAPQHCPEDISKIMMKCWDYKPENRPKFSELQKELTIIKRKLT

T35 sequence (P49137 whole entry): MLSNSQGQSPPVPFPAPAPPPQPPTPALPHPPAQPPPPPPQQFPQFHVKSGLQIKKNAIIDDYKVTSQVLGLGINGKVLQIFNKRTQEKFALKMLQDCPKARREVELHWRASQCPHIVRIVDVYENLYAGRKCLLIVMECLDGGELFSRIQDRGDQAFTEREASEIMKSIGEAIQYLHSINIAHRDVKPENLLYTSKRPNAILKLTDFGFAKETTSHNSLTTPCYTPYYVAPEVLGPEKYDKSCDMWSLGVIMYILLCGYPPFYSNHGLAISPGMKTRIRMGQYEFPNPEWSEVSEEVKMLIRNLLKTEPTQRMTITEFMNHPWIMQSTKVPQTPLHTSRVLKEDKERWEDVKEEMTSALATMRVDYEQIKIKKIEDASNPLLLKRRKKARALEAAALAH
T15 sequence (Q8BTI9 whole entry, canonical isoform): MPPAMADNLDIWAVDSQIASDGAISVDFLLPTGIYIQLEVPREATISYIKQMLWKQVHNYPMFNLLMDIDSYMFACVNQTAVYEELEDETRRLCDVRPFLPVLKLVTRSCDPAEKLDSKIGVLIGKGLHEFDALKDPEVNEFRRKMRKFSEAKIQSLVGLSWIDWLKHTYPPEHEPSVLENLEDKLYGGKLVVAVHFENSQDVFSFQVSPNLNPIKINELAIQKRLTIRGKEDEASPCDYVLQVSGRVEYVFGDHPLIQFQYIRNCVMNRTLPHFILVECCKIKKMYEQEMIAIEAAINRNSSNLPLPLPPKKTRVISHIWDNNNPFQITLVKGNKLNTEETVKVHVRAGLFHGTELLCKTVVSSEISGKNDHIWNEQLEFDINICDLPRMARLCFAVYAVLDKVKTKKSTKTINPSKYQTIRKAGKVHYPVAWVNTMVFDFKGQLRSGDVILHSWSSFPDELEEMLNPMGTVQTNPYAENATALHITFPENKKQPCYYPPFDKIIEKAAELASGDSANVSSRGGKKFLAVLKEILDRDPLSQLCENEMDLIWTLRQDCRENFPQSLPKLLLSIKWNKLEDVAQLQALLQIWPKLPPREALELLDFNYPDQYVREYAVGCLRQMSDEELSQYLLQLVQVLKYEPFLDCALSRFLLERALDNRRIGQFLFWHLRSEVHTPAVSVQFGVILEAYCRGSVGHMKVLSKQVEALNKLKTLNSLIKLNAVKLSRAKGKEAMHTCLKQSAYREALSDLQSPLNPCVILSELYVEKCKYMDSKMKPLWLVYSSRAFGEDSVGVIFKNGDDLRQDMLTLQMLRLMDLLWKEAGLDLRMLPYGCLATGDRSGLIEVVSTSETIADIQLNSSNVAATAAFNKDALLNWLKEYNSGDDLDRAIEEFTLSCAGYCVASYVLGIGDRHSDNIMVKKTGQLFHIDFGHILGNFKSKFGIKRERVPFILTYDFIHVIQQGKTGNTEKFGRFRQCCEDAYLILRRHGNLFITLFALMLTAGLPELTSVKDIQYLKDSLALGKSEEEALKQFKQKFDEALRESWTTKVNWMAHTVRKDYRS
T15 sequence (P26450 whole entry partner, canonical isoform): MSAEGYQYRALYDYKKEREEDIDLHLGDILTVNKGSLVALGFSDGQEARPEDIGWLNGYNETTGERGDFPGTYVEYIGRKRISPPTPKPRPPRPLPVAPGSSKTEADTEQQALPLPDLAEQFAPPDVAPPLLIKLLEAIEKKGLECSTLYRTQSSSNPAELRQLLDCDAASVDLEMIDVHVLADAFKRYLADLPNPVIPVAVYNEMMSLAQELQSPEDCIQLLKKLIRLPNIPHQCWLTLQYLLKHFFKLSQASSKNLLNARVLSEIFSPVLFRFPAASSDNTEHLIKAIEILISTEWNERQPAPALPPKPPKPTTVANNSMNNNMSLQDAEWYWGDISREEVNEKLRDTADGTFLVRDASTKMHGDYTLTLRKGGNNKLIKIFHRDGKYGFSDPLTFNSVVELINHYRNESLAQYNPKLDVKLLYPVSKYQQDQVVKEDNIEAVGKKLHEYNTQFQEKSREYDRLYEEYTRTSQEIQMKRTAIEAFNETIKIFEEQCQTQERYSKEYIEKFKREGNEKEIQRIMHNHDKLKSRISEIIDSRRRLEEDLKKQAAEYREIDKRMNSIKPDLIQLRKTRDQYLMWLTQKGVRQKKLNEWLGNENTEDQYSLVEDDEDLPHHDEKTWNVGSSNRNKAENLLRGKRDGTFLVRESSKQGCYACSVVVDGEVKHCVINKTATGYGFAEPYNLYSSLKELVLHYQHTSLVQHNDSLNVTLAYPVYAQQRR
T10 sequence (Q12852 whole entry): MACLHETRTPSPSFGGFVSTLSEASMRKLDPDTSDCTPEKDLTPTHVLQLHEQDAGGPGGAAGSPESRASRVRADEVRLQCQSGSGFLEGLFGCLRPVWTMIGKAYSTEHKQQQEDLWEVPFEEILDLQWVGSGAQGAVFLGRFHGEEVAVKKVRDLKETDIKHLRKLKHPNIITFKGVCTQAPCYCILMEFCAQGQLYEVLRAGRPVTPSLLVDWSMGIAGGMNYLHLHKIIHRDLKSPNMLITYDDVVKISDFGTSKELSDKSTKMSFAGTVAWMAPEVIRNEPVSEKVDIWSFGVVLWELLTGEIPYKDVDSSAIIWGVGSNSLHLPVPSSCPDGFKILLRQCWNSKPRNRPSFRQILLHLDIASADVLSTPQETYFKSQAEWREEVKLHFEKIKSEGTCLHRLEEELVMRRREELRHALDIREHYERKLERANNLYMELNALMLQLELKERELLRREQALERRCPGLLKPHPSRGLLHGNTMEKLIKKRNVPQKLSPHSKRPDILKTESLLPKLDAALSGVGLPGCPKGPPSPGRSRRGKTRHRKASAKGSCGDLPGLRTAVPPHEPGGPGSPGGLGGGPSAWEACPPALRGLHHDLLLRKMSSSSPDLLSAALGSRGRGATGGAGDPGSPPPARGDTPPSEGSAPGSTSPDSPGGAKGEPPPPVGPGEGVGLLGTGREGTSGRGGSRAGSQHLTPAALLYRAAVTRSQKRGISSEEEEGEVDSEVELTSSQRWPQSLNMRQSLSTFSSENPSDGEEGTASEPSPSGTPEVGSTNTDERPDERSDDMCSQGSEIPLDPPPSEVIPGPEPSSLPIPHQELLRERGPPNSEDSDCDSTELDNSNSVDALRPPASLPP
T28 sequence (Q9NSY1 whole entry): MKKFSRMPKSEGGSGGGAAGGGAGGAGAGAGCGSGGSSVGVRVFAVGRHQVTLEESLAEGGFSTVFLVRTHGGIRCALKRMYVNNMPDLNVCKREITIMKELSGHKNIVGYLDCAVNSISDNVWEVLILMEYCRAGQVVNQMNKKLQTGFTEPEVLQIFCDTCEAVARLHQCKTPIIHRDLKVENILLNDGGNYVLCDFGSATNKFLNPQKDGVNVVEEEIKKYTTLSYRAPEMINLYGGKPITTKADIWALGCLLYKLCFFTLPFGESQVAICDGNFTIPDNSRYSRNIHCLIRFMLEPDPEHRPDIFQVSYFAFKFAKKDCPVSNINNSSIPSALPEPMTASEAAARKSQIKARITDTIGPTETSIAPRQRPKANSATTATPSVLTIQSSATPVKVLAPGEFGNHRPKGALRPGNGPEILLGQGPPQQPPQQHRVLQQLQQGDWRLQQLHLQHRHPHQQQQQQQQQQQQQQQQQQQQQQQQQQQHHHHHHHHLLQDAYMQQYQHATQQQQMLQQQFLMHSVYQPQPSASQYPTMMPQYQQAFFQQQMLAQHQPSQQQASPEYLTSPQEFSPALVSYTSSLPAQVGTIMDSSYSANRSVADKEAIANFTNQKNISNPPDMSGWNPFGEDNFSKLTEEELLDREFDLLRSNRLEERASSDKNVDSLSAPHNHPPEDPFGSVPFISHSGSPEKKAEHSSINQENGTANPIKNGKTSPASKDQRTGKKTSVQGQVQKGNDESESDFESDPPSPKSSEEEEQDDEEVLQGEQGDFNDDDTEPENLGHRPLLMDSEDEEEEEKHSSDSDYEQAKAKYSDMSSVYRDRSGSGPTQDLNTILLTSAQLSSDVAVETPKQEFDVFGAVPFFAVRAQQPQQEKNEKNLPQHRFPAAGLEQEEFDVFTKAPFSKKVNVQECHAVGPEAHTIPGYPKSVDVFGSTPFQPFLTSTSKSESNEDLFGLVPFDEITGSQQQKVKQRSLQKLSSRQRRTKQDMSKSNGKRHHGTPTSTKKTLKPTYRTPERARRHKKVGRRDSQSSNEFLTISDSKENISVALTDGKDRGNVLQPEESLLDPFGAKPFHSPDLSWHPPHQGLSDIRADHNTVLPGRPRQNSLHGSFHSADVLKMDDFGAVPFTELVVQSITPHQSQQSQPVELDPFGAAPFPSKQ

Cc1nc(NC(=O)[C@@H](N)C(C)C)sc1-c1cnc(Cl)c(NS(=O)(=O)c2ccccc2)c1 [PI3KD-IN-015]
KinomeScan PKAC-alpha (PKAC-alpha): 96
KinomeScan LATS2 (LATS2): 100
KinomeScan FLT3(K663Q) (FLT3(K663Q)): 100
PARP cleavage (apoptosis) (PARP cleavage; MEC-1 cell (CLL)): only weakly
PARP cleavage (apoptosis) (PARP cleavage; MOLM-13 cell (AML), HT cell (B-NHL)): apparent PARP cleavage
KinomeScan CLK2 (CLK2): 90
KinomeScan GAK (GAK): 100
KinomeScan MEK5 (MEK5): 94
KinomeScan DAPK3 (DAPK3): 91
KinomeScan ANKK1 (ANKK1): 100
KinomeScan FLT1 (FLT1): 89
KinomeScan DLK (DLK): 99
KinomeScan ZAK (ZAK): 100
KinomeScan ULK3 (ULK3): 88
KinomeScan MINK (MINK): 100
KinomeScan EPHA1 (EPHA1): 100
EC50 (PI3Kβ): > 3 µM
KinomeScan ACVR1 (ACVR1): 100
EC50 (PI3Kα): > 3 µM
KinomeScan MST4 (MST4): 86
KinomeScan SBK1 (SBK1): 66
KinomeScan CDC2L5 (CDC2L5): 92
KinomeScan MEK1 (MEK1): 100
KinomeScan BTK (BTK): 81
KinomeScan DCAMKL1 (DCAMKL1): 61
KinomeScan TRKA (TRKA): 96
KinomeScan STK36 (STK36): 100
KinomeScan LYN (LYN): 100
KinomeScan ABL1(H396P)-phosphorylated [1]: 78
KinomeScan BIKE (BIKE): 73
KinomeScan CSK (CSK): 90
KinomeScan CDK11 (CDK11): 100
KinomeScan HIPK3 (HIPK3): 100
KinomeScan PIK3CB (PIK3CB): 0
KinomeScan BMPR1B (BMPR1B): 80
KinomeScan ABL1(F317L)-phosphorylated [2]: 99
KinomeScan MAPKAPK2 (MAPKAPK2): 95
KinomeScan IKK-alpha (IKK-alpha): 95
KinomeScan EPHB4 (EPHB4): 100
KinomeScan PRKD3 (PRKD3): 100
KinomeScan DAPK1 (DAPK1): 98
KinomeScan EPHA8 (EPHA8): 100
KinomeScan LCK (LCK): 100
KinomeScan FER (FER): 89
